Measurements from the supplement of paper PMC11061612.

Key:
[1] = tested on: Becker (Low Grade Glioma); experiment: Bliss excess, mean over the matrix (fraction); higher = more synergy
Procedure, shortened: (§1)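 Bliss excess equals the observed combination effect minus the expected value EA + EB − EA·EB, where EA and EB are the effects of each agent alone. Combination Emax is the second-highest inhibition within the matrix. Inhibition was scaled from CellTiter-Glo 2.0 luminescence, with 0 set by vehicle wells and 1 by blank wells, after 72 hours of two-drug dosing of cells plated in 1536-well plates.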

CHL-1 (Melanoma) [2] = experiment: as above
Procedure, shortened: as §1

[3] = tested on: CML-T1 (Chronic Myelogenous Leukemia); experiment: as above
Procedure, shortened: as §1

[4] = tested on: COLO-684 (Endometrial Carcinoma); experiment: as above
Procedure, shortened: as §1

[5] = tested on: EB-3 (Burkitt's Lymphoma); experiment: as above
Procedure, shortened: as §1

[6] = tested on: FLO-1 (Esophageal Adenocarcinoma); experiment: as above
Procedure, shortened: as §1

[7] = tested on: HCC-44 (Lung Adenocarcinoma); experiment: as above
Procedure, shortened: as §1

KYM-1 (Rhabdomyosarcoma) [8] = experiment: as above
Procedure, shortened: as §1

[9] = tested on: KYSE-70 (Esophageal Squamous Cell Carcinoma); experiment: as above
Procedure, shortened: as §1

[10] = tested on: LAMA-84 (Chronic Myelogenous Leukemia); experiment: as above
Procedure, shortened: as §1

[11] = tested on: LOUCY (T-Lymphoblastic Leukemia); experiment: as above
Procedure, shortened: as §1

[12] = tested on: NCI-H1755 (Lung Adenocarcinoma); experiment: as above
Procedure, shortened: as §1

[13] = tested on: NCI-H810 (Non-Small Cell Lung Carcinoma); experiment: as above
Procedure, shortened: as §1

[14] = tested on: NKM-1 (Acute Myeloid Leukemia); experiment: as above
Procedure, shortened: as §1

[15] = tested on: OV-90 (Ovarian Carcinoma); experiment: as above
Procedure, shortened: as §1

[16] = tested on: PANC-02-03 (Pancreatic Carcinoma); experiment: as above
Procedure, shortened: as §1

[17] = tested on: PC-14 (Lung Adenocarcinoma); experiment: as above
Procedure, shortened: as §1

[18] = tested on: RMG-I (Ovarian Carcinoma); experiment: as above
Procedure, shortened: as §1

[19] = tested on: SK-MM-2 (Plasma Cell Myeloma); experiment: as above
Procedure, shortened: as §1

[20] = tested on: SW684 (Other Solid Carcinomas); experiment: as above
Procedure, shortened: as §1

[21] = tested on: Becker (Low Grade Glioma); experiment: combination Emax (second highest fraction inhibited in the dose matrix, 72 h); higher = more inhibition; extreme values may be limits of the assay
Procedure, shortened: as §1

CHL-1 (Melanoma) [22] = experiment: as above
Procedure, shortened: as §1

[23] = tested on: CML-T1 (Chronic Myelogenous Leukemia); experiment: as above
Procedure, shortened: as §1

[24] = tested on: COLO-684 (Endometrial Carcinoma); experiment: as above
Procedure, shortened: as §1

[25] = tested on: EB-3 (Burkitt's Lymphoma); experiment: as above
Procedure, shortened: as §1

[26] = tested on: FLO-1 (Esophageal Adenocarcinoma); experiment: as above
Procedure, shortened: as §1

[27] = tested on: HCC-44 (Lung Adenocarcinoma); experiment: as above
Procedure, shortened: as §1

KYM-1 (Rhabdomyosarcoma) [28] = experiment: as above
Procedure, shortened: as §1

[29] = tested on: KYSE-70 (Esophageal Squamous Cell Carcinoma); experiment: as above
Procedure, shortened: as §1

[30] = tested on: LAMA-84 (Chronic Myelogenous Leukemia); experiment: as above
Procedure, shortened: as §1

[31] = tested on: LOUCY (T-Lymphoblastic Leukemia); experiment: as above
Procedure, shortened: as §1

[32] = tested on: NCI-H1755 (Lung Adenocarcinoma); experiment: as above
Procedure, shortened: as §1

[33] = tested on: NCI-H810 (Non-Small Cell Lung Carcinoma); experiment: as above
Procedure, shortened: as §1

[34] = tested on: NKM-1 (Acute Myeloid Leukemia); experiment: as above
Procedure, shortened: as §1

[35] = tested on: OV-90 (Ovarian Carcinoma); experiment: as above
Procedure, shortened: as §1

[36] = tested on: PANC-02-03 (Pancreatic Carcinoma); experiment: as above
Procedure, shortened: as §1

[37] = tested on: PC-14 (Lung Adenocarcinoma); experiment: as above
Procedure, shortened: as §1

[38] = tested on: RMG-I (Ovarian Carcinoma); experiment: as above
Procedure, shortened: as §1

[39] = tested on: SK-MM-2 (Plasma Cell Myeloma); experiment: as above
Procedure, shortened: as §1

[40] = tested on: SW684 (Other Solid Carcinomas); experiment: as above
Procedure, shortened: as §1

Compound | Bliss excess [1] | Bliss excess (CHL-1 (Melanoma) [2]) | Bliss excess [3] | Bliss excess [4] | Bliss excess [5] | Bliss excess [6] | Bliss excess [7] | Bliss excess (KYM-1 (Rhabdomyosarcoma) [8]) | Bliss excess [9] | Bliss excess [10] | Bliss excess [11] | Bliss excess [12] | Bliss excess [13] | Bliss excess [14] | Bliss excess [15] | Bliss excess [16] | Bliss excess [17] | Bliss excess [18] | Bliss excess [19] | Bliss excess [20] | combination Emax [21] | combination Emax (CHL-1 (Melanoma) [22]) | combination Emax [23] | combination Emax [24] | combination Emax [25] | combination Emax [26] | combination Emax [27] | combination Emax (KYM-1 (Rhabdomyosarcoma) [28]) | combination Emax [29] | combination Emax [30] | combination Emax [31] | combination Emax [32] | combination Emax [33] | combination Emax [34] | combination Emax [35] | combination Emax [36] | combination Emax [37] | combination Emax [38] | combination Emax [39] | combination Emax [40]
CN(CCO)CC[C@H](CSc1ccccc1)Nc1ccc(S(=O)(=O)NC(=O)c2ccc(N3CCC([C@@H](O)c4ccccc4-c4ccc(Cl)cc4)CC3)cc2)cc1S(=O)(=O)C(F)(F)F [AZD4320] + CC(=O)O[C@H]1C(=O)[C@@]2(C)[C@H]([C@H](OC(=O)c3ccccc3)[C@]3(O)C[C@H](OC(=O)[C@H](O)[C@@H](NC(=O)c4ccccc4)c4ccccc4)C(C)=C1C3(C)C)[C@]1(OC(C)=O)CO[C@@H]1C[C@@H]2O [Paclitaxel] (first compound max 1 µM, 7x7, partner max 3 µM) | 0.0744 | 0.0578 | -0.0236 | 0.0345 | -0.0733 | 0.0005 | -0.0294 | 0.017 | 0.0722 | 0.0001 | 0.0229 | 0.0211 | 0.237 | 0.0078 | 0.0935 | 0.0109 | 0.0125 | 0.133 | 0.0531 | 0.164 | 1 | 1 | 1 | 0.663 | 0.754 | 0.98 | 0.876 | 1 | 0.597 | 1 | 1 | 0.9 | 0.992 | 1 | 0.932 | 0.597 | 0.996 | 0.94 | 1 | 0.952
C=CCn1c(=O)c2cnc(Nc3ccc(N4CCN(C)CC4)cc3)nc2n1-c1cccc(C(C)(C)O)n1 [AZD1775] + Nc1ccn([C@@H]2O[C@H](CO)[C@@H](O)C2(F)F)c(=O)n1 [Gemcitabine] (first compound max 1 µM, partner max 0.3 µM) | 0.0271 | 0.0089 | 0.0273 | -0.0674 | 0.0105 | 0.0955 | 0.0711 | 0.0009 | -0.002 | 0.0286 | 0.108 | 0.0304 | -0.0695 | 0.0002 | -0.0166 | 0.0035 | 0.0198 | -0.0608 | 0.0664 | -0.0333 | 0.584 | 0.725 | 0.998 | 0.718 | 0.811 | 0.904 | 0.916 | 0.999 | 0.565 | 0.963 | 0.995 | 0.786 | 0.828 | 1 | 0.555 | 0.588 | 0.917 | 0.401 | 0.623 | 0.382
C[C@@H](Oc1cc(-c2cnn(C3CCNCC3)c2)cnc1N)c1c(Cl)ccc(F)c1Cl [Crizotinib] + CC1=C(C(=CC=C1)Cl)NC(=O)C2=CN=C(S2)NC3=CC(=NC(=N3)C)N4CCN(CC4)CCO [Dasatinib] (first compound max 10 µM, 7x7, partner max 2 µM) | 0.1 | -0.0401 | -0.0958 | -0.049 | -0.0181 | 0.0436 | 0.101 | -0.0389 | -0.0068 | 0.0136 | -0.0383 | 0.0591 | -0.0726 | -0.0197 | 0.0304 | -0.0328 | 0.0183 | 0.0034 | -0.0416 | 0.0215 | 0.648 | 0.349 | 0.987 | 0.41 | 0.639 | 1 | 0.962 | 0.917 | 0.423 | 1 | 0.674 | 0.983 | 0.244 | 0.971 | 0.591 | 0.606 | 1 | 0.737 | 0.303 | 0.758
C[C@@H]1COCCN1c1cc(C2([S@](C)(=N)=O)CC2)nc(-c2ccnc3[nH]ccc23)n1 [AZD6738] + Nc1ccn([C@@H]2O[C@H](CO)[C@@H](O)C2(F)F)c(=O)n1 [Gemcitabine] (first compound max 10 µM, 7x7, partner max 0.3 µM) | 0.0762 | 0.0858 | 0.0987 | -0.0731 | 0.007 | 0.124 | 0.0963 | 0.0132 | -0.0006 | 0.0674 | 0.0579 | 0.0444 | 0.0805 | -0.0345 | -0.0129 | -0.0067 | 0.0058 | -0.0514 | 0.114 | 0.0693 | 0.808 | 0.902 | 1 | 0.733 | 0.847 | 0.949 | 0.844 | 1 | 0.504 | 0.976 | 1 | 0.812 | 0.794 | 1 | 0.573 | 0.579 | 0.869 | 0.48 | 0.572 | 0.559
C[C@@H](Oc1cc(-c2cnn(C3CCNCC3)c2)cnc1N)c1c(Cl)ccc(F)c1Cl [Crizotinib] + Cn1cnc2c(F)c(Nc3ccc(Br)cc3Cl)c(C(=O)NOCCO)cc21 [Selumetinib] (first compound max 10 µM, 7x7, partner max 10 µM) | 0.0409 | -0.0464 | -0.0165 | -0.0629 | -0.0834 | 0.031 | -0.0103 | -0.0202 | -0.0364 | 0.0176 | -0.0249 | -0.006 | -0.123 | -0.0543 | 0.0569 | -0.0458 | -0.0183 | 0.0091 | -0.0442 | -0.0262 | 0.661 | 0.0893 | 0.957 | 0.452 | 0.625 | 0.878 | 0.916 | 0.92 | 0.255 | 1 | 0.724 | 0.983 | 0.212 | 0.906 | 0.742 | 0.713 | 0.89 | 0.59 | 0.377 | 0.39
O=C(c1cc(Cc2n[nH]c(=O)c3ccccc23)ccc1F)N1CCN(C(=O)C2CC2)CC1 [Olaparib] + CC1(C)CCC(CN2CCN(c3ccc(C(=O)NS(=O)(=O)c4ccc(NCC5CCOCC5)c([N+](=O)[O-])c4)c(Oc4cnc5[nH]ccc5c4)c3)CC2)=C(c2ccc(Cl)cc2)C1 [Venetoclax] (first compound max 10 µM, 7x7, partner max 1 µM) | -0.0134 | -0.0355 | 0.0685 | -0.0346 | -0.0328 | -0.0251 | -0.0278 | -0.0388 | -0.039 | -0.003 | 0.0365 | -0.0395 | -0.0541 | 0.257 | -0.0377 | -0.0386 | -0.0071 | -0.0398 | 0.0141 | -0.0606 | 0.198 | 0.171 | 0.946 | 0.259 | 0.162 | 0.209 | 0.177 | 0.446 | 0.0967 | 0.211 | 1 | 0.126 | 0.271 | 0.976 | 0.204 | 0.107 | 0.142 | 0.282 | 1 | 0.141
